Experimental data: patent publication US20090104196A1, “Antibodies For Use in Identifying and/or Scoring Prostate Cancer and Androgen Receptor-Dependent Gene Expression Control” (priority 2005, published 2009)
“Also recorded” adds a separate entry of the source.

How the values were obtained:
[1] = test system: LSD1-induced activation of AR; experiment: Transient transfection AR-dependent luciferase reporter assay in 293 cells (LSD1 + AR co-expression); type: cell-based; conditions: R1881, 3×10^−3 M pargyline, 1×10^−3 M deprenyl, or 1×10^−4 M clorgyline for 18 hours, FIG. 4c
Procedure: (§1) 293 and CV-1 cells were cultured and transfected as described^12. LNCaP cells were cultured in phenol-red-free RPMI1640 supplemented with 10% double-stripped fetal calf serum (dsFCS) and transfected with Effectene (Qiagen). The following amounts per well were used: MMTV-LUC, ARE2X-TATA-LUC, ARE2X-TK-LUC, TK-LUC, TREp-LUC, β-RE-LUC, ERE2X-TATA-LUC, PSA-LUC, Slp-ARU-TATA-LUC 500 ng each, 25 ng expression plasmids for AR, PR, ERα, RARα, and TRβ; 500 to 700 ng expression plasmids for LSD1 1-174, LSD1 175-246, LSD1 247-852, LSD1Δ281-360, LSD1ΔAO, pSUPER-control, and pSUPER-LSD1; 100 to 700 ng expression plasmids for LSD1 were transfected per well. […] Luciferase activity was assayed as described^9. All experiments were repeated at least five times in duplicate.

[2] = test system: other nuclear receptors (PR, ERα, RARα, TRβ); experiment: Reporter assays for other nuclear hormone receptors in 293 cells; type: cell-based; conditions: pargyline, FIG. 10k
Procedure: as §1

[3] = target: T1, LSD1 (Homo sapiens, UniProt O60341); experiment: Chromatin immunoprecipitation (ChIP) of histone methylation marks at the PSA promoter in LNCaP cells; type: cell-based
T1 construct: endogenous in cells; host or cells: LNCaP cells
Procedure: ChIP experiments were performed essentially as described^14. […] LNCaP cells were transfected three days before harvesting for ChIP with or without siRNA (Qiagen) following the manufacture's instructions. Immunoprecipitation was performed with specific antibodies (α-monoMeK9H3, α-diMeK9H3, α-triMeK9H3, α-monoMeK4H3, α-diMeK4H3, α-triMeK4H3, α-H3 (abcam), α-LSD1, and α-AR PG21 (Upstate Biotechnology) on GammaBind TMSepharose 4B (GE-Healthcare). For PCR, 1-5 μl out of 50 μl DNA extract was used. For Re-ChIP assays, immunoprecipitations were sequentially washed with TSE I, TSE II, buffer III, and TE^14. Complexes were eluted by incubation with 10 mM DTT at 37° C. for 30 min, diluted 50 times with dilution buffer^14 followed by a second immunoprecipitation with the indicated antibody. Primer sequences were as follows: exon 4, PSA (+3909/+4067) 5′-[…]-3′ and 5′-[…]-3′; middle, PSA (−2223/−1951) 5′-[…]-3′ and 5′-[…]-3′; PCR primers for ARE I+II (PSA (−459/−121)) and ARE III (PSA ([…])), GAPDH, and U6 have been previously described^7, 15, 16.

[4] = test system: PSA gene; experiment: qRT-PCR of endogenous PSA gene expression in LNCaP cells; type: cell-based, human; conditions: pargyline, FIG. 4d
Procedure: DNAsel-treated RNA isolated using RNAwiz (Ambion) was used for reverse transcription. Quantitative PCR was performed in an ABI PRISM 7700 sequence detector. Product formation was detected by incorporation of SYBR Green I using ROX as a passive reference (ABgene). The expression ratios of the analyzed cDNAs were related to the normalized Cp of the housekeeping gene GAPDH in control and sample. The following primers were used: GAPDH: 5′-[…]-3′; 5′-[…]-3′; PSA: 5′-[…]-3′; 5′-[…]-3′. Statistical analysis for qPCR was performed by group-wise comparison based on PCR efficiencies and the mean crossing point deviation between sample and control group using Relative Expression Software Tool^19. Experiments were repeated and analysed three times.

[5] = R1881, PSA promoter, pargyline, FIG. 8

Compound	LSD1-induced activation of AR [1]	activity of other nuclear receptors [2]	demethylation of mono- and dimethyl H3-K9 during androgen-induced transcription ([3]; R1881, PSA promoter (ARE I+II), pargyline 18 hours, FIG. 3b)	methylation levels of trimethyl H3-K9 ([3]; R1881, PSA promoter, pargyline, FIG. 3b)	methylation status of H3-K27 [3, 5]	methylation status of H4-K20 [3, 5]	methylation of histone H3 at lysine 4 (H3-K4) ([3]; in vivo ChIP, pargyline, FIG. 3b)	androgen-induced expression of the endogenous PSA gene [4]	androgen-induced expression of the endogenous PSA gene ([4]; listed as Pargyline)
C#CCN(C)CCCOc1ccc(Cl)cc1Cl [clorgyline, N-methyl-N-propargyl-3-(2,4-dichlorophenoxy-)propylamine]	severely impair	–	–	–	–	–	–	–	–
C#CCN(C)[C@H](C)Cc1ccccc1 [deprenyl, (R)-(−)-N,2-dimethyl-N-2-propynylphenethylamine]	severely impair	–	–	–	–	–	–	–	–
C#CCN(C)Cc1ccccc1 [pargyline, N-methyl-N-2-propynylbenzylamine]	severely impair	does not influence; also recorded: fails to block	blocks	remain unchanged	remain unchanged	remain unchanged	not influenced	blocks	reduces
